Measured values published in PMC6993007, “Protocol for bevacizumab purification using Ac-PHQGQHIGVSK-agarose” (MethodsX, 2019).

Legend:
bevacizumab [1] = conditions: in words, Kd not given; ref [2]; cited from earlier work
Source text: Bevacizumab is a monoclonal antibody, produced in CHO cells, used for the treatment of many human cancers. It is an anti-vascular endothelial growth factor (antsi-VEGF) that blocks the growth of tumor blood vessels. Nowadays its purification is achieved by affinity chromatography (AC) using protein A which is a very expensive ligand. […] This short peptide ligand has higher stability and lower cost than protein A and it can be prepared very easily by solid phase peptide synthesis. The ...

bevacizumab [2] = assay: Bevacizumab purification by Ac-PHQGQHIGVSK-agarose affinity chromatography from the CHO cell culture; conditions: in words; mild elution conditions
Experimental: Material • Adsorption buffer: 20 mM sodium phosphate, pH 7.0, 1 M (NH4)2SO4 • A column containing 0.5 mL (0.5 × 2.5 cm) of Ac-PHQGQHIGVSK-agarose • Elution buffer: 20 mM sodium phosphate, pH 7.0 • Absorption UV/VIS spectrophotometer
Procedure • 1 Clarify the CHO cell culture containing bevacizumab by centrifugation or filtration. • 2 Add to the sample the amount of (NH4)2SO4 necessary to achieve a final concentration of 1 M. • 3 Equilibrate the chromatographic column containing Ac-PHQGQHIGVSK-agarose with 20 volumes of adsorption buffer. • 4 Load the column with CHO cell culture filtrate containing bevacizumab. Note: the amount of bevacizumab loaded to the column must be lower than the maximum capacity of the chromatographic matrix synthesized. • 5 Wash the column with adsorption buffer until the absorbance at 280 nm achieves the baseline value. • 6 Elute the bound protein by adding 20 mM sodium phosphate, pH 7.0. • 7 Measure total protein concentration with Bradford reagent using pure bevacizumab as the protein standard. • 8 Measure bevacizumab concentration by HPLC using a protein A analytical column as per Zou et al.. • 9 Perform sodium dodecyl sulfate polyacrylamide gel electrophoresis (SDS-PAGE) (12.5 % under reductive conditions) as described by Laemmli and stain gels with Coomassie Blue following the standard procedure.

For Ac-PHQGQHIGVSK-NH2, the affinity for bevacizumab (bevacizumab [1]) is listed as “binds bevacizumab with high affinity”.

In the case of “bevacizumab: anti-vascular endothelial growth factor (anti-VEGF) monoclonal antibody, produced in CHO cells”, the “integrity of bevacizumab (mAb)” value (bevacizumab [2]) is reported as “preserve the integrity”.
